Data from PubChem BioAssay AID256 (DTP/NCI, 2004).
Values joined by “and” are separate entries in the source; they are usually repeats but may differ in a detail not shown here. Equal values may be shown once. Toxic doses and inconclusive results are not listed. The calls were made as follows: active = survival T/C of 150% or more; inactive = T/C below 125% in these data.

System: CD2F1 mice, L1210 leukemia ip, survival T/C
Assay: NCI In Vivo Anticancer Drug Screen. Data for tumor model L1210 Leukemia (intraperitoneal) in CD2F1 (CDF1) mice
Conditions: endpoint: mean survival time, higher = longer survival
Outline: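 Transplantable tumor in mice; compound-treated vs vehicle-treated groups. Read-out = treated/control ratio of the measured endpoint.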

[1] = dose: 100.0 mg/kg/injection, schedule: Q01DX009 (ip), vehicle: saline with Tween-80
[2] = dose: 100.0 mg/kg/injection, schedule: Q04DX003 (ip), vehicle: saline sonified
[3] = dose: 200.0 mg/kg/injection, schedule: Q01DX009 (ip), vehicle: saline with Tween-80
[4] = dose: 200.0 mg/kg/injection, schedule: Q04DX003 (ip), vehicle: saline sonified
[5] = dose: 400.0 mg/kg/injection, schedule: Q01DX009 (ip), vehicle: saline with Tween-80
[6] = dose: 400.0 mg/kg/injection, schedule: Q04DX003 (ip), vehicle: saline sonified
[7] = dose: 25.0 mg/kg/injection, schedule: Q04DX002 (ip), vehicle: saline with Tween-80
[8] = dose: 50.0 mg/kg/injection, schedule: Q04DX002 (ip), vehicle: saline with Tween-80

Measured: T/C

C(=Nc1ccccc1)c1ccccc1C=Nc1ccccc1
inactive: [1] 94 % of control | [2] 100 % of control | [3] 92 % of control | [4] 100 % of control | [5] 94 % of control | [6] 102 % of control

O=C(O)C1C2CCCCC21 (stereo unspecified)
inactive: [1] 105 % of control | dose: 100.0 mg/kg/injection, schedule: Q04DX003 (ip), vehicle: saline with Tween-80 98 % of control | [3] 94 % of control | dose: 200.0 mg/kg/injection, schedule: Q04DX003 (ip), vehicle: saline with Tween-80 100 % of control | [5] 101 % of control | dose: 400.0 mg/kg/injection, schedule: Q04DX003 (ip), vehicle: saline with Tween-80 94 % of control

CC(=O)Nc1ccncn1
inactive: [7] 97 % of control | [8] 100 % of control

Cc1ccc(S(=O)(=O)OC2CC3CCC2C3)cc1 (stereo unspecified)
inactive: dose: 100.0 mg/kg/injection, schedule: Q04DX003 (ip), vehicle: acetone 105 % of control | dose: 200.0 mg/kg/injection, schedule: Q04DX003 (ip), vehicle: acetone 101 % of control | dose: 400.0 mg/kg/injection, schedule: Q04DX003 (ip), vehicle: acetone 100 % of control

CC(=O)Nc1cccc(/C=C/c2cccc([N+](=O)[O-])c2)c1
inactive: dose: 100.0 mg/kg/injection, schedule: Q01DX001 (ip), vehicle: Klucel (hydroxypropylcellulose) (HPC) 103 % of control | dose: 200.0 mg/kg/injection, schedule: Q01DX001 (ip), vehicle: Klucel (hydroxypropylcellulose) (HPC) 93 % of control | dose: 400.0 mg/kg/injection, schedule: Q01DX001 (ip), vehicle: Klucel (hydroxypropylcellulose) (HPC) 100 % of control

ClI(Cl)c1ccccc1
inactive: [1] 98 % of control

OC(CN1CCCCC1)c1ccncc1 (stereo unspecified)
inactive: dose: 75.0 mg/kg/injection, schedule: Q01DX001 (ip), vehicle: saline 95 % of control | dose: 150.0 mg/kg/injection, schedule: Q01DX001 (ip), vehicle: saline 95 % of control | dose: 300.0 mg/kg/injection, schedule: Q01DX001 (ip), vehicle: saline 95 % of control

CC(=O)OC(CCl)C(Cl)CCl (stereo unspecified)
inactive: dose: 12.5 mg/kg/injection, schedule: Q04DX002 (ip), vehicle: saline with Tween-80 103 % of control | [7] 106 % of control | [8] 92 % of control | dose: 100.0 mg/kg/injection, schedule: Q01DX001 (ip), vehicle: saline sonified 95 % of control | dose: 200.0 mg/kg/injection, schedule: Q01DX001 (ip), vehicle: saline sonified 95 % of control | dose: 400.0 mg/kg/injection, schedule: Q01DX001 (ip), vehicle: saline sonified 108 % of control

COc1ccc(CCN2CC34C=CC(O3)C(C(=O)O)C4C2=O)cc1OCc1ccccc1 (stereo unspecified)
inactive: dose: 100.0 mg/kg/injection, schedule: Q04DX002 (ip), vehicle: saline with Tween-80 95 % of control | dose: 200.0 mg/kg/injection, schedule: Q04DX002 (ip), vehicle: saline with Tween-80 95 % of control | dose: 400.0 mg/kg/injection, schedule: Q04DX002 (ip), vehicle: saline with Tween-80 95 % of control

CC(=O)OC1=NC(C)c2c1cc(OC(C)=O)[nH]c2=O (stereo unspecified)
inactive: dose: 6.25 mg/kg/injection, schedule: Q01DX009 (ip), vehicle: Klucel (hydroxypropylcellulose) (HPC) 104 % of control and 107 % of control | dose: 12.5 mg/kg/injection, schedule: Q01DX009 (ip), vehicle: Klucel (hydroxypropylcellulose) (HPC) 101 % of control and 106 % of control | dose: 25.0 mg/kg/injection, schedule: Q01DX009 (ip), vehicle: Klucel (hydroxypropylcellulose) (HPC) 104 % of control and 110 % of control | dose: 50.0 mg/kg/injection, schedule: Q01DX009 (ip), vehicle: Klucel (hydroxypropylcellulose) (HPC) 100 % of control and 101 % of control | dose: 100.0 mg/kg/injection, schedule: Q01DX009 (ip), vehicle: Klucel (hydroxypropylcellulose) (HPC) 113 % of control and 102 % of control

O=Nc1c(O)sc2ccccc12
inactive: dose: 100.0 mg/kg/injection, schedule: Q01DX001 (ip), vehicle: saline with Tween-80 110 % of control | [1] 97 % of control | dose: 200.0 mg/kg/injection, schedule: Q01DX001 (ip), vehicle: saline with Tween-80 105 % of control | [3] 100 % of control | dose: 400.0 mg/kg/injection, schedule: Q01DX001 (ip), vehicle: saline with Tween-80 95 % of control | [5] 94 % of control

O=C(NO)Nc1ccccc1
inactive: dose: 8.0 mg/kg/injection, schedule: Q03HX024 (ip), vehicle: other 101 % of control | dose: 16.0 mg/kg/injection, schedule: Q03HX024 (ip), vehicle: other 101 % of control | dose: 32.0 mg/kg/injection, schedule: Q03HX024 (ip), vehicle: other 101 % of control | dose: 62.0 mg/kg/injection, schedule: Q03HX024 (ip), vehicle: saline with Tween-80 89 % of control | dose: 64.0 mg/kg/injection, schedule: Q03HX024 (ip), vehicle: other 95 % of control | dose: 93.0 mg/kg/injection, schedule: Q03HX024 (ip), vehicle: saline with Tween-80 86 % of control | dose: 128.0 mg/kg/injection, schedule: Q03HX024 (ip), vehicle: other 92 % of control

CS(=O)(=O)OCC(O)C(O)COS(C)(=O)=O (stereo unspecified)
inactive: dose: 50.0 mg/kg/injection, schedule: Q01DX007 (ip), vehicle: saline 107 % of control | dose: 50.0 mg/kg/injection, schedule: Q01DX009 (ip), vehicle: saline 101 % of control | dose: 50.0 mg/kg/injection, schedule: Q03DX003 (ip), vehicle: saline 104 % of control | dose: 50.0 mg/kg/injection, schedule: Q04DX003 (ip), vehicle: saline 103 % of control | dose: 100.0 mg/kg/injection, schedule: Q01DX007 (ip), vehicle: saline 104 % of control | dose: 100.0 mg/kg/injection, schedule: Q01DX009 (ip), vehicle: saline sonified 102 % of control | dose: 100.0 mg/kg/injection, schedule: Q01DX009 (ip), vehicle: saline 104 % of control | dose: 100.0 mg/kg/injection, schedule: Q03DX003 (ip), vehicle: saline 104 % of control | [2] 100 % of control | dose: 100.0 mg/kg/injection, schedule: Q04DX003 (ip), vehicle: saline 100 % of control | dose: 200.0 mg/kg/injection, schedule: Q01DX007 (ip), vehicle: saline 105 % of control | dose: 200.0 mg/kg/injection, schedule: Q01DX009 (ip), vehicle: saline sonified 96 % of control | dose: 200.0 mg/kg/injection, schedule: Q01DX009 (ip), vehicle: saline 106 % of control | dose: 200.0 mg/kg/injection, schedule: Q03DX003 (ip), vehicle: saline 102 % of control | [4] 108 % of control | dose: 200.0 mg/kg/injection, schedule: Q04DX003 (ip), vehicle: saline 114 % of control | dose: 400.0 mg/kg/injection, schedule: Q01DX009 (ip), vehicle: saline sonified 100 % of control | [6] 102 % of control

CCCCCC(=O)NNc1nc(N)nc2nonc12
inactive: dose: 6.25 mg/kg/injection, schedule: Q01DX005 (ip), vehicle: other 109 % of control | dose: 12.5 mg/kg/injection, schedule: Q01DX005 (ip), vehicle: other 97 % of control | dose: 25.0 mg/kg/injection, schedule: Q01DX005 (ip), vehicle: other 105 % of control | dose: 50.0 mg/kg/injection, schedule: Q01DX005 (ip), vehicle: other 97 % of control | dose: 100.0 mg/kg/injection, schedule: Q01DX005 (ip), vehicle: other 100 % of control

Nc1ncc(CCS)c(=O)[nH]1
inactive: dose: 100.0 mg/kg/injection, schedule: Q01DX001 (ip), vehicle: saline 97 % of control | dose: 200.0 mg/kg/injection, schedule: Q01DX001 (ip), vehicle: saline 98 % of control

CCCCCCCCCCCCCCCCCCNC(=S)NCCCCCCCCCCCCCCCCCC
inactive: dose: 12.5 mg/kg/injection, schedule: Q01DX009 (ip), vehicle: saline with Tween-80 97 % of control | dose: 25.0 mg/kg/injection, schedule: Q01DX009 (ip), vehicle: saline with Tween-80 98 % of control | dose: 50.0 mg/kg/injection, schedule: Q01DX009 (ip), vehicle: saline with Tween-80 90 % of control and 98 % of control | [1] 90 % of control

CC12CCC3C(CCC4=CC(=O)C(C(O)(C(F)(F)F)C(F)(F)F)CC43C)C1CC(C(O)(C(F)(F)F)C(F)(F)F)C2=O (stereo unspecified)
inactive: dose: 100.0 mg/kg/injection, schedule: Q01DX009 (sc), vehicle: steriod suspending solution 90 % of control | dose: 200.0 mg/kg/injection, schedule: Q01DX009 (sc), vehicle: steriod suspending solution 95 % of control | dose: 400.0 mg/kg/injection, schedule: Q01DX009 (sc), vehicle: steriod suspending solution 92 % of control

S=C(S)NC1CCCCC1
inactive: dose: 6.0 mg/kg/injection, schedule: Q04DX003 (ip), vehicle: saline with Tween-80 98 % of control | dose: 12.0 mg/kg/injection, schedule: Q04DX003 (ip), vehicle: saline with Tween-80 102 % of control | dose: 24.0 mg/kg/injection, schedule: Q04DX003 (ip), vehicle: saline with Tween-80 94 % of control
